Experimental findings from article PMC11900971 (International Journal of Molecular Sciences, 2025) are described below.

Read-outs that look alike come from different tables or passages of the source.

The test system of test [1] is L6 cells (rat skeletal myoblasts). Briefly: cells. The note with it: L6, read-out: Cyt L6 IC50.
The test system of test [2] is Plasmodium falciparum, strain NF54, erythrocytic stages. Description: microbe, parasite or virus in culture.
Test [3] has as its system Trypanosoma brucei rhodesiense, STIB 900 strain, bloodstream forms. Description: microbe, parasite or virus in culture.
The mark [4] stands for this setting: NF54, read-out: P. falc. pIC50 (converted).
Where [5] appears, read: read-out: T. b. rhod. pIC50 (converted).

`CCN(CC)CCCC(C)Nc1ccnc2cc(Cl)ccc12` (stereo not shown) [Chl., chloroquine, reference compound]: the IC50 was 91.1 µM in test [1]; 0.003 µM in test [2] (NF54, read-out: P. falc. IC50); 0.00302 µM in test [2] (setting [4]).

Take `CC1=C(Cc2ccccc2)C(=O)c2ccccc2C1=O` [Compound 2a, 2-Benzyl-3-methyl-1,4-naphthoquinone]: the IC50 is 62.8 µM in test [3] (read-out: T. b. rhod. IC50); 63.1 µM in test [3] (setting [5]); 45 µM in test [1]; 0.358 µM in test [2] (NF54, read-out: P. falc. IC50); 0.355 µM in test [2] (setting [4]).

In the case of `CC1=C(Cc2ccc(C(F)(F)F)cc2F)C(=O)c2ccccc2C1=O` [Compound 2c, 2-{[2-Fluoro-4-(trifluoromethyl)phenyl]methyl}-3-methyl-1,4-naphthoquinone], the IC50 in test [3] (read-out: T. b. rhod. IC50) is 81.4 µM; in test [3] (setting [5]), 81.3 µM; in test [1] it was 61.7 µM; in test [2] (NF54, read-out: P. falc. IC50) it was 0.011 µM; in test [2] (setting [4]), 0.0115 µM.

Take `CC1=C(Cc2ccc(F)cc2C(F)(F)F)C(=O)c2ccccc2C1=O` [Compound 2d, 2-{[4-Fluoro-2-(trifluoromethyl)phenyl]methyl}-3-methyl-1,4-naphthoquinone]: the IC50 was 23.2 µM in test [3] (read-out: T. b. rhod. IC50); 23.4 µM in test [3] (setting [5]); 62.3 µM in test [1]; 0.02 µM in test [2] (NF54, read-out: P. falc. IC50); 0.02 µM in test [2] (setting [4]).

Regarding `CC1=C(Cc2cc(C(F)(F)F)ccc2F)C(=O)c2ccccc2C1=O` [Compound 2e, 2-{[2-Fluoro-5-(trifluoromethyl)phenyl]methyl}-3-methyl-1,4-naphthoquinone], the IC50 in test [3] (read-out: T. b. rhod. IC50) was 93 µM; in test [3] (setting [5]) it was 93.3 µM; in test [1], 43 µM; in test [2] (NF54, read-out: P. falc. IC50), 0.006 µM; in test [2] (setting [4]), 0.00575 µM.

Turning to `CC1=C(Cc2ccc(Cl)nc2)C(=O)c2ccccc2C1=O` [Compound 2f, 2-[(6-Chloropyridin-3-yl)methyl]-3-methyl-1,4-naphthoquinone], the IC50 was 8.27 µM in test [3] (read-out: T. b. rhod. IC50); 8.32 µM in test [3] (setting [5]); 24.2 µM in test [1]; 0.037 µM in test [2] (NF54, read-out: P. falc. IC50); 0.0372 µM in test [2] (setting [4]).

Consider `CC1=C(Cc2ccc([N+](=O)[O-])cc2)C(=O)c2ccccc2C1=O` [Compound 2g, 2-Methyl-3-[(4-nitrophenyl)methyl]-1,4-naphthoquinone], for which the IC50 was 28 µM in test [3] (read-out: T. b. rhod. IC50); 28.2 µM in test [3] (setting [5]); 19.1 µM in test [1]; 0.111 µM in test [2] (NF54, read-out: P. falc. IC50); 0.11 µM in test [2] (setting [4]).

With `CC1=C(Cc2ccc([N+](=O)[O-])cc2F)C(=O)c2ccccc2C1=O` [Compound 2h, 2-[(2-Fluoro-4-nitrophenyl)methyl]-3-methyl-1,4-naphthoquinone], the IC50 in test [3] (read-out: T. b. rhod. IC50) was 25.5 µM; in test [3] (setting [5]), 25.7 µM; in test [1], 17.4 µM; in test [2] (NF54, read-out: P. falc. IC50) it was 0.022 µM; in test [2] (setting [4]), 0.0214 µM.

With `CC1=C(Cc2cc(F)c(F)cc2F)C(=O)c2ccccc2C1=O` [Compound 2i, 2-Methyl-3-[(2,4,5-trifluorophenyl)methyl]-1,4-naphthoquinone], the IC50 in test [3] (read-out: T. b. rhod. IC50) was 30.4 µM; in test [3] (setting [5]) it was 30.2 µM; in test [1], 54.5 µM; in test [2] (NF54, read-out: P. falc. IC50) it was 0.044 µM; in test [2] (setting [4]) it was 0.0447 µM.

On to `CC(=O)Nc1ccc(CC2=C(C)C(=O)c3ccccc3C2=O)cc1` [Compound 2j, 2-[(4-Acetamidophenyl)methyl]-3-methyl-1,4-naphthoquinone], for which the IC50 in test [3] (read-out: T. b. rhod. IC50) was 28.9 µM; in test [3] (setting [5]) it was 28.8 µM; in test [1], 16.3 µM; in test [2] (NF54, read-out: P. falc. IC50), 0.695 µM; in test [2] (setting [4]), 0.692 µM.

On to `Nc1nc(N)nc(Nc2ccc([As]3SCC(CO)S3)cc2)n1` (stereo not shown) [Mel., melarsoprol, reference compound], for which the IC50 in test [3] (read-out: T. b. rhod. IC50) is 0.006 µM; in test [3] (setting [5]), 0.00603 µM; in test [1], 24.2 µM.

For `COc1cc([C@@H]2c3cc4c(cc3[C@H](O)[C@H]3COC(=O)[C@H]23)OCO4)cc(OC)c1OC` [Pod., podophyllotoxin, reference compound], the IC50 in test [1] came out at 0.024 µM.
